Legend:
NFKBIZ mRNA [1] = assay: NFKBIZ mRNA expression by RT-qPCR in LPS-stimulated HCECs; format: cell-based, human; details: LPS-stimulated (100 ng/mL) HCECs, 10 μM ASO or siRNA, without transfection reagent, 6 h + 48 h
Protocol: HCECs were inoculated in a 6-well plate at a density of 1×10^5 cells/well and cultured until adherence. The cells were then stimulated with 100 ng/mL lipopolysaccharide (LPS) overnight. After removing the supernatant, 1 mL of Opti-MEM medium containing ASONFKBIZ-h, ASONFKBIZ-h+Lipofectamine2000 (Lipo2000), and CsA-ASONFKBIZ-h (all containing 10 µM ASO) were added, respectively. Cells without any treatment were used as a blank reference (Mock). After incubation at 37° C. for 6 h, the cells were transferred into DMEM medium and incubated for another 48 h. The cells were collected and RNA was extracted for RT-qPCR to analyze the expression level of the NFKBIZ mRNA in HCECs, and experimental results were shown in FIG. 9. The expression level of NFKBIZ mRNA in HCECs after LPS stimulation was about 1.3 times that of normal cells. […] After adding CsA-ASONFKBIZ-h for co-incubation, the expression of NFKBIZ mRNA was reduced to about 0.8 times that of normal cells.
(§1) HCECs were inoculated in a 6-well plate at a density of 1×10^5 cells/well and cultured until adherence. The cells were then stimulated with 100 ng/mL LPS overnight. After removing the supernatant, 1 mL of Opti-MEM medium containing ASONFKBIZ-h+Lipo2000 complex and 2CsA-ASONFKBIZ-h nanomicelles (all containing 10 µM ASO) were added, respectively. After incubation at 37° C. for 6 h, the cells were transferred into DMEM medium and incubated for another 48 h. The cells were collected and RNA was extracted for RT-qPCR to analyze the expression level of the NFKBIZ mRNA in HCECs, and experimental results were shown in FIG. 12.
as §1, with “ng/ml” for “ng/mL”, “3CsA-ASONFKBIZ-h” for “2CsA-ASONFKBIZ-h”, “15.” for “12.”
HCECs were inoculated in a 6-well plate at a density of 1×10^5 cells/well and cultured until adherence. The cells were then stimulated with 100 ng/mL LPS overnight. 1 mL of Opti-MEM medium containing ASONFKBIZ-h+Lipo2000 complex and CsA3-ASONFKBIZ-h nanomicelles (all containing 10 µM ASO) were added, respectively. After incubation at […]. 37° C. for 6 h, the cells were transferred into DMEM medium and incubated for another 48 h. After collected and RNA was extracted for RT-qPCR to evaluate the expression level of NFKBIZ mRNA in HCECs, and the experimental results were shown in FIG. 23.
HCECs were inoculated in a 6-well plate at a density of 1×10^5 cells/well and cultured overnight until adherence. The cells were then stimulated with 100 ng/ml LPS for 12 h. After removing the supernatant, 1 mL of Opti-MEM medium containing siRNANFKBIZ-h+Lipo2000 complex and nCsA-siRNANFKBIZ-h (n=1, 2, 3) conjugates and nanomicelles (all containing 10 μM siRNA) were added, respectively. After incubation at 37° C. for 6 h, the cells were transferred into DMEM medium and incubated for another 48 h. The cells were collected and RNA was extracted for RT-qPCR to evaluate the expression of NFKBIZ mRNA in HCECs, and experimental results were shown in FIG. 27. […]

NFKBIZ mRNA [2] = assay: NFKBIZ mRNA expression by RT-qPCR in IL-36-stimulated HaCaT cells; format: cell-based, human; details: IL-36-stimulated (100 ng/ml, 2 h) HaCaT cells, nanomicelles with 10 μM ASONFKBIZ-h, 6 h + 48 h
Protocol: HaCaT cells from human keratinocyte cell line were inoculated in a 6-well plate at a density of 1×10^5 cells/well and cultured until adherence. The cells were then stimulated with 100 ng/ml interleukin-36 (IL-36) for 2 h. After washing with 1×PBS buffer, 1 mL of Opti-MEM medium containing ASONFKBIZ-h+Lipo2000 complex and CsA3-ASONFKBIZ-h nanomicelles (all containing 10 μM ASONFKBIZ-h) were added, respectively. After incubation with HaCaT cells for 6 h, the cells were transferred into fresh DMEM medium, while cells without any treatment or stimulated with IL-36 alone were used as a control, all cells were incubated at 37° C. for 48 h. The cells were collected and RNA was extracted for RT-qPCR to analyze the expression level of the NFKBIZ mRNA in HaCaT cells, and experimental results were shown in FIG. 51.
HaCaT cells from human keratinocyte cell line were inoculated in a 6-well plate at a density of 1×10^5 cells/well and cultured until adherence. The cells were then stimulated with 100 ng/ml interleukin-36 (IL-36) for 2 h. After washing with 1×PBS buffer, 1 mL of Opti-MEM medium containing ASONFKBIZ-h+Lipo2000 complex and 10TA-ASONFKBIZ-h nanomicelles (all containing 10 μM ASONFKBIZ-h) were added, respectively. […]

CsA3-ASONFKBIZ-h: CsA trimer on tripropargyl linker at 3′ end of ASO targeting human NFKBIZ (SEQ ID NO: 7) (ATCAGACAACGAATCGGGC; 3'-NHS ASO with tripropargyl linker carrying three cyclosporin A, chemistry not given here, further chemistry not given here)
expression of NFKBIZ mRNA relative to normal cells (NFKBIZ mRNA [1]): about 0.5 times that of normal cells | NFKBIZ mRNA expression relative to normal cells (NFKBIZ mRNA [2]): about 0.8 times
